According to patent US20100298141A1, “SUBSTITUTED PYRIDINE N-OXIDE HERBICIDES” (E. I. DU PONT DE NEMOURS AND COMPANY, priority 2007, published 2010):

Tests used:
common groundsel = test: Test F preemergence test; assay type: in vivo, Senecio vulgaris; conditions: scale 0 to 100
Summary of the method: (§1)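 Greenhouse screen: test chemical in surfactant-containing non-phytotoxic solvent applied preemergence to sown seeds or postemergence to sugarcane plants; after 14 to 21 days each species scored visually versus controls.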

bermudagrass = test: Test F preemergence test; assay type: in vivo, Cynodon dactylon; conditions: scale 0 to 100
Summary of the method: as §1

goosegrass = test: Test F preemergence test; assay type: in vivo, Eleusine indica; conditions: scale 0 to 100
Summary of the method: as §1

Surinam grass = test: Test F preemergence test; assay type: in vivo, Brachiaria decumbens; conditions: scale 0 to 100
Summary of the method: as §1

pitted morningglory = test: Test F preemergence test; assay type: in vivo, Ipomoea lacunosa; conditions: scale 0 to 100
Summary of the method: as §1

southern sandbur = test: Test F preemergence test; assay type: in vivo, Cenchrus echinatus; conditions: scale 0 to 100
Summary of the method: as §1

kochia = test: Test F preemergence test; assay type: in vivo, Kochia scoparia; conditions: scale 0 to 100
Summary of the method: as §1

common purslane = test: Test F preemergence test; assay type: in vivo, Portulaca oleracea; conditions: scale 0 to 100
Summary of the method: as §1

johnsongrass = test: Test F preemergence test; assay type: in vivo, Sorghum halepense; conditions: scale 0 to 100
Summary of the method: as §1

naked crabgrass = test: Test F preemergence test; assay type: in vivo, Digitaria nuda; conditions: scale 0 to 100
Summary of the method: as §1

quackgrass = test: Test F preemergence test; assay type: in vivo, Elytrigia repens; conditions: scale 0 to 100
Summary of the method: as §1

guineagrass = test: Test F preemergence test; assay type: in vivo, Panicum maximum; conditions: scale 0 to 100
Summary of the method: as §1

purple nutsedge = test: Test F preemergence test; assay type: in vivo, Cyperus rotundus; conditions: scale 0 to 100
Summary of the method: as §1

large crabgrass = test: Test F preemergence test; assay type: in vivo, Digitaria sanguinalis; conditions: scale 0 to 100
Summary of the method: as §1

Russian thistle = test: Test C pre-/postemergence test; assay type: in vivo, Salsola kali
From the text: Seeds of plant species selected from blackgrass (Alopecurus myosuroides), downy brome (Bromus tectorum), green foxtail (Setaria viridis), Italian ryegrass (Lolium multiflorum), wheat (Triticum aestivum), wild oat (Avena fatua), catchweed bedstraw (Galium aparine), Russian thistle (Salsola kali), […] (Cynodon dactylon), Surinam grass (Brachiaria decumbens), cocklebur (Xanthium strumarium), corn (Zea mays), crabgrass (Digitaria sanguinalis), woolly cupgrass (Eriochloa villosa), giant foxtail (Setaria faberii), Goosegrass (Eleusin indica), johnsongrass (Sorghum halepense), kochia (Kochia scoparia), lambsquarters (Chenopodium album), morningglory (Ipomoea coccinea), eastern black nightshade (Solanum ptycanthum), yellow nutsedge (Cyperus esculentus), pigweed (Amaranthus retroflexus), common ragweed (Ambrosia elation), soybean (Glycine max), common (oilseed) sunflower (Helianthus annuus), and velvetleaf (Abutilon theophrasti) were planted and treated preemergence with test chemicals formulated in a non-phytotoxic solvent mixture which included a surfactant. At the same time, plants selected from these crop and weed species and also winter barley (Hordeum vulgare), canarygrass (Phalaris minor), and chickweed (Stellaria media) were treated with postemergence applications of some of the test chemicals formulated in the same manner. Plants ranged in height from 2 to 18 cm (1- to 4-leaf stage) for postemergence treatments. […] At time of treatment, test pots were flooded to 3 cm above the soil surface, treated by application of test compounds directly to the paddy water, and then maintained at that water depth for the duration of the test. […] A dash (-) response means no test result.

prickly sida = test: Test F preemergence test; assay type: in vivo, Sida spinosa; conditions: scale 0 to 100
Summary of the method: as §1

Italian ryegrass = test: Test F preemergence test; assay type: in vivo, Lolium multiflorum; conditions: scale 0 to 100
Summary of the method: as §1

common ragweed = test: Test F preemergence test; assay type: in vivo, Ambrosia elation; conditions: scale 0 to 100
Summary of the method: as §1

## CC(Oc1c(C[S+]([O-])c2cccc[n+]2[O-])c(C(F)(F)F)nn1C)C(F)(F)F (stereo not shown) [Compound 77]
Common groundsel; 16 g ai/ha, preemergence
  Plant response rating, Groundsel: 0
Common groundsel; 62 g ai/ha, Preemergence
  Groundsel plant response rating: 0
Common groundsel; 125 g ai/ha, preemergence
  Groundsel plant response rating: 0
Common groundsel; Preemergence, 31 g ai/ha
  Plant response rating, Groundsel: 0
bermudagrass; 16 g ai/ha, preemergence
  Plant response rating, Bermudagrass: 0
bermudagrass; 62 g ai/ha, Preemergence
  Bermudagrass plant response rating: 80
bermudagrass; 125 g ai/ha, preemergence
  Bermudagrass plant response rating: 95
bermudagrass; Preemergence, 31 g ai/ha
  Plant response rating, Bermudagrass: 30
goosegrass; 16 g ai/ha, preemergence
  Plant response rating, Goosegrass: 20
goosegrass; 62 g ai/ha, Preemergence
  Goosegrass plant response rating: 100
goosegrass; 125 g ai/ha, preemergence
  Goosegrass plant response rating: 100
goosegrass; Preemergence, 31 g ai/ha
  Plant response rating, Goosegrass: 85
Surinam grass; 16 g ai/ha, preemergence
  Plant response rating, Surinam Grass: 0
Surinam grass; 125 g ai/ha, preemergence
  Surinam Grass plant response rating: 98
Surinam grass; Preemergence, 62 g ai/ha
  Plant response rating, Surinam Grass: 95
Surinam grass; Preemergence, 31 g ai/ha
  Plant response rating, Surinam Grass: 70
Pitted morningglory; 16 g ai/ha, preemergence
  Plant response rating, Morningglory: 0
Pitted morningglory; 62 g ai/ha, Preemergence
  Morningglory plant response rating: 60
Pitted morningglory; 125 g ai/ha, preemergence
  Morningglory plant response rating: 90
Pitted morningglory; Preemergence, 31 g ai/ha
  Plant response rating, Morningglory: 35
Southern sandbur; 16 g ai/ha, preemergence
  Plant response rating, Sandbur: 0
Southern sandbur; 125 g ai/ha, preemergence
  Sandbur plant response rating: 100
Southern sandbur; Preemergence, 62 g ai/ha
  Plant response rating, Sandbur: 95
Southern sandbur; Preemergence, 31 g ai/ha
  Plant response rating, Sandbur: 90
kochia; 16 g ai/ha, preemergence
  Plant response rating, Kochia: 0
kochia; 62 g ai/ha, Preemergence
  Kochia plant response rating: 75
kochia; 125 g ai/ha, preemergence
  Kochia plant response rating: 100
kochia; Preemergence, 31 g ai/ha
  Plant response rating, Kochia: 0
Common purslane; 16 g ai/ha, preemergence
  Plant response rating, Purslane: 0
Common purslane; 62 g ai/ha, Preemergence
  Purslane plant response rating: 20
Common purslane; 125 g ai/ha, preemergence
  Purslane plant response rating: 65
Common purslane; Preemergence, 31 g ai/ha
  Plant response rating, Purslane: 0
johnsongrass; 16 g ai/ha, preemergence
  Plant response rating, Johnsongrass: 0
johnsongrass; 62 g ai/ha, Preemergence
  Johnsongrass plant response rating: 85
johnsongrass; 125 g ai/ha, preemergence
  Johnsongrass plant response rating: 100
johnsongrass; Preemergence, 31 g ai/ha
  Plant response rating, Johnsongrass: 75
Naked crabgrass; 16 g ai/ha, preemergence
  Plant response rating, Crabgrass, Naked: 0
Naked crabgrass; 62 g ai/ha, Preemergence
  Crabgrass, Naked plant response rating: 90
Naked crabgrass; 125 g ai/ha, preemergence
  Crabgrass, Naked plant response rating: 100
Naked crabgrass; Preemergence, 31 g ai/ha
  Plant response rating, Crabgrass, Naked: 75
quackgrass; 16 g ai/ha, preemergence
  Plant response rating, Quackgrass: 0
quackgrass; 62 g ai/ha, Preemergence
  Quackgrass plant response rating: 40
quackgrass; 125 g ai/ha, preemergence
  Quackgrass plant response rating: 80
quackgrass; Preemergence, 31 g ai/ha
  Plant response rating, Quackgrass: 0
guineagrass; 16 g ai/ha, preemergence
  Plant response rating, Guineagrass: 15
guineagrass; 62 g ai/ha, Preemergence
  Guineagrass plant response rating: 100
guineagrass; 125 g ai/ha, preemergence
  Guineagrass plant response rating: 100
guineagrass; Preemergence, 31 g ai/ha
  Plant response rating, Guineagrass: 80
Purple nutsedge; 16 g ai/ha, preemergence
  Plant response rating, Purple Nutsedge: 0
Purple nutsedge; 125 g ai/ha, preemergence
  Purple Nutsedge plant response rating: 75
Purple nutsedge; Preemergence, 31 g ai/ha
  Plant response rating, Purple Nutsedge: 60
Large crabgrass; 16 g ai/ha, preemergence
  Plant response rating, Crabgrass, Large: 0
Large crabgrass; 62 g ai/ha, Preemergence
  Crabgrass, Large plant response rating: 95
Large crabgrass; 125 g ai/ha, preemergence
  Crabgrass, Large plant response rating: 100
Large crabgrass; Preemergence, 31 g ai/ha
  Plant response rating, Crabgrass, Large: 85
Russian thistle; 62 g ai/ha, Preemergence, scale 0 to 100
  Russian Thistle plant response rating: 100
Russian thistle; 125 g ai/ha, preemergence, scale 0 (no effect) to 100 (complete control)
  Russian Thistle plant response rating: 100
Russian thistle; Preemergence, 31 g ai/ha, scale 0 to 100 (0 no effect, 100 complete control)
  Plant response rating, Russian Thistle: 100
Russian thistle; preemergence, 250 g ai/ha, scale 0 (no effect) to 100 (complete control)
  Russian Thistle plant response rating: 100
Prickly sida; 16 g ai/ha, preemergence
  Plant response rating, Prickly Sida: 20
Prickly sida; 62 g ai/ha, Preemergence
  Prickly Sida plant response rating: 80
Prickly sida; 125 g ai/ha, preemergence
  Prickly Sida plant response rating: 80
Prickly sida; Preemergence, 31 g ai/ha
  Plant response rating, Prickly Sida: 30
Italian ryegrass; 16 g ai/ha, preemergence
  Plant response rating, Ryegrass, Italian: 0
Italian ryegrass; 125 g ai/ha, preemergence
  Ryegrass, Italian plant response rating: 100
Italian ryegrass; Preemergence, 62 g ai/ha
  Plant response rating, Ryegrass, Italian: 90
Italian ryegrass; Preemergence, 31 g ai/ha
  Plant response rating, Ryegrass, Italian: 40
Common ragweed; 16 g ai/ha, preemergence
  Plant response rating, Ragweed: 0
Common ragweed; 125 g ai/ha, preemergence
  Ragweed plant response rating: 98
Common ragweed; Preemergence, 62 g ai/ha
  Plant response rating, Ragweed: 65
